Assay results as given in publication PMC9786170, “The Pharmacological Potential of Novel Melittin Variants from the Honeybee and Solitary Bees against Inflammation and Cancer” (Toxins, 2022).

Key:
RAW264.7 cells = test: Cell viability assay (WST-8/Orangu formazan) in RAW264.7 cells; assay type: cell-based, murine; settings: RAW264.7, 25 µg/mL, 24 h, WST-8 formazan absorbance, vehicle = 100%, n = 3
Description: Figure 1 Toxicity characterization of cells treated with melittin peptides. (A,B) For the viability assay, RAW264.7 (A) or HEK293T (B) cells were treated with bee venom compounds in the indicated concentrations for 24 h. Cells were incubated with WST-8 and the formed formazan was detected by absorbance measurements. (C) For the proliferation assay, HMEC-1 cells were grown in low density and treated after 24 h with the indicated peptide (25 µg/mL) for 72 h. Cells were stained with crystal violet solution. The amount of DNA-bound crystal violet was detected by absorbance measurements. (D) The number of sub-diploidic cells was determined by staining with propidium iodide (PI) and quantified to assess apoptosis of HUVECs. Data are expressed as mean ± SEM. (A) n = 3, (B) n = 4, (C) n = 2–3, (D) n = 2. * p ≤ 0.05 versus control.
For assessing the cytotoxicity of all peptides, various cell types and assays were utilized. To determine the cell viability of HEK293T and RAW246.7 cells, the Orangu^TM assay (Cell Guidance Systems Ltd., Cambridge, UK) was used, as previously described. 2 × 10^5 HEK293T or 2 × 10^5 RAW246.7 were seeded in 96-well plates. Different concentrations (0, 0.25, 2.5, 25 µg/mL) of melittin peptides or vehicle (DMSO) were added. After 24 h of incubation at 37 °C and 5% CO2, 10 µL of Orangu^TM cell counting solution was added and incubated for 60 min. After incubation, absorbance was measured at a wavelength of 450 nm with a reference at 650 nm at an EnSpire 2300 Multimode Plate Reader (Perkin Elmer, Lübeck, Germany). To calculate cell viability, the absorbance of vehicle-treated cells was set to 100%, and the melittin derivates-treated samples were correlated to them.

[1] = test system: IL-1β-activated rat knee joint cells; settings: by inhibiting I-κB degradation and NF-κB migration into the nucleus; cited from earlier work
Excerpt: (§1) LPS induces iNOS expression and the release of NO in RAW264.7 macrophages. […] Previously, Tang et al. reported that Melt prev ...

[2] = test system: LPS-activated BV2 microglia; settings: by blocking NF-κB translocation; cited from earlier work
Excerpt: as §1

HEK293T cells [3] = test: cAMP inhibition assay (forskolin-stimulated, pGloSensor-22F); assay type: cell-based, human; settings: 5 µM forskolin, 2.5 and 25 µg/mL, pGloSensor luminescence, n = 4
Description: (§2) Figure 3 Melittin derivates alter the cellular concentration of cyclic adenosine monophosphate (cAMP). (A) For the cAMP induction assay, HEK293T cells transfected with pGloSensor-22F cAMP plasmid were treated with melittin derivates (0.25, 2.5, 25 µg/mL) in presence of the pGloSensor cAMP reagent, and luminescence was detected. (B) For the cAMP inhibition assay, HEK293T cells transfected with pGloSensor-22F cAMP plasmid were treated with melittin derivates (0.25, 2.5, 25 µg/mL) in presence of the pGloSensor cAMP reagent, stimulated with 5 µM forskolin, and luminescence was detected. Data are expressed as mean ± SEM. n = 4, * p ≤ 0.05 versus control.
(§3) HEK293T cells were transfected with pGloSensor-22F cAMP plasmid (E2301, Promega, Walldorf, Germany) using turbofect reagent (Thermofisher Scientific, Frankfurt am Main, Germany). […] For the induction assay (step one), the luminescence was detected (background, 3 measurements every 5 min) and then the melittin peptides (0.25, 2.5, 25 µg/mL) or 5 µM forskolin were added. The luminescence was detected (3 measurements every 5 min) using the plate reader (Spark, Tecan, Männedorf, Switzerland). For the inhibition assay (step tow), the melittin peptide-treated cells were then incubated with 5 µM forskolin and the luminescence was detected (3 measurements every 5 min). […]

[4] = cited from earlier work
Excerpt: Therefore, the identification of biologically active derivatives of melittins with minimal toxicity to healthy cells is important for developing new pharmacological treatment options. In this study, we applied a broad in vitro screening approach of melittin variants from the honeybee and earlier solitary bee lineages to assess whether these ...

[5] = test system: triple-negative and HER2-enriched breast cancer subtypes; settings: cited from earlier work
Excerpt: It was also reported that a positively charged C-terminal peptide end is responsible for the plasma membrane ...

calmodulin = settings: cited from earlier work
Excerpt: These two systems are rarely independent but are often antagonistic, sometimes synergistic, or occasionally redundant. Ca^2+ is never elevated without a possible consequence—either positive or negative— ...

HEK293T cells [6] = test: cAMP induction assay (pGloSensor-22F); assay type: cell-based, human; settings: 2.5 and 25 µg/mL, pGloSensor luminescence, n = 4
Description: as §2, §3

MDA-MB-231 cells = test: Apoptosis of MDA-MB-231 cells (propidium iodide, flow cytometry); assay type: cell-based, human; settings: MDA-MB-231, 25 µg/mL, 24 h, 48 h and 72 h, PI, n = 2
Description: Figure 5 Anti-proliferative and apoptotic effect of melittin derivates on the triple-negative breast cancer cell line MDA-MB-231. (A) For the proliferation assay, cells were grown in low density and were treated after 24 h with melittin peptides at a concentration of 25 µg/mL for 72 h. Cells were stained with crystal violet solution. The amount of DNA-bound crystal violet was detected by absorbance measurements. (B) Melt3, 4, and Xac4, which are non-toxic to healthy cells, were further used to test effects on proliferation at 24 h (left) and 48 h (right) at different concentrations. (C) The effects on apoptosis were detected by flow cytometry after 24 h (left), 48 h (middle), and 72 h (right) of treatment. The number of apoptotic cells was determined by staining with propidium iodide (PI). Data are expressed as mean ± SEM. n = 2, * p ≤ 0.05 versus control. Sts, staurosporin 1 µM.
Apoptosis of primary HUVECs was detected according to the method of Nicoletti et al.. […] The percentage of cells with sub-diploidic DNA content was measured using a FACSVerse flow cytometer (BD Biosciences, Heidelberg, Germany).

**Q.** Which “reduction of cell viability” value (RAW264.7 cells) does the source give for melittin [Melt, reference compound] here?
**A.** more than 90%

**Q.** What about the NF-κB activation [1] of the same substance?
**A.** prevents NF-κB activation

**Q.** And the “iNOS expression and NO synthesis” value [2]?
**A.** reduced LPS-activated BV2 microglia iNOS expression and NO synthesis

**Q.** And the “prevention of cAMP synthesis, forskolin-stimulated cells” value (HEK293T cells [3])?
**A.** almost completely prevented cAMP synthesis

**Q.** What about the “degradation in the blood” value [4] of the same substance?
**A.** fast degradation in the blood

**Q.** And the “apoptosis of breast cancer subtypes” value [5]?
**A.** induce apoptosis

**Q.** And the “inhibition of calmodulin function” value (calmodulin)?
**A.** competitive inhibitor of the calmodulin function

**Q.** What about the “prevention of cAMP synthesis, unstimulated cells” value (HEK293T cells [6]) of the same substance?
**A.** almost completely prevented cAMP synthesis

**Q.** For xylopin [Xac4], which “apoptosis / cancer cell death” value (MDA-MB-231 cells) is on record?
**A.** trend of decreased proliferation and increased apoptosis
